For 22 compounds, IC50 results are on record in patent publication US20260062443A1 (ALEXION PHARMACEUTICALS, INC., priority 2022, published 2026).

Usually IC50 stands for the concentration that inhibits the measured activity by half.

The target of this assay is T1, Human complement C1s enzyme (Homo sapiens, UniProt P09871).
T1 sequence (P09871 438-688 limits assumed): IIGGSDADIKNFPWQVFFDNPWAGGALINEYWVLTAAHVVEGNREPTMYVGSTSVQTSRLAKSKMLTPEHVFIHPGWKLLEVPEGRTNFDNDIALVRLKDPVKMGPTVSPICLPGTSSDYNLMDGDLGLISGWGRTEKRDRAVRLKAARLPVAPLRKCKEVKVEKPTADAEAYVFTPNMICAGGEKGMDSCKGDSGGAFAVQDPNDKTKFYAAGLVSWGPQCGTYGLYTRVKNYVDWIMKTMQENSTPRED
T1 sequence (P09871 16-437 partner limits assumed): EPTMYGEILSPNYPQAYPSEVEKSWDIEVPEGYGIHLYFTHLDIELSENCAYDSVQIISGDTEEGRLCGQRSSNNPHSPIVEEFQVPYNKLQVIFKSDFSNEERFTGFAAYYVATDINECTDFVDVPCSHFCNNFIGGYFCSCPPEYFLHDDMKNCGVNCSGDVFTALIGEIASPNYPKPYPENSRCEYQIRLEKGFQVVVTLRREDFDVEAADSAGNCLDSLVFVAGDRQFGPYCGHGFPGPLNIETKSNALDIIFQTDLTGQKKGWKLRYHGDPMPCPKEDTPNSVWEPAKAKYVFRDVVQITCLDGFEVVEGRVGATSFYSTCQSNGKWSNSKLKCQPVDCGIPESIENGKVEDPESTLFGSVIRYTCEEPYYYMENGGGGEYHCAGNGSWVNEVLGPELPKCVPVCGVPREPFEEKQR
Kind of assay: Human C1s enzyme assay. It counts as biochemical. Particulars: human complement C1s enzyme 1.16 nM, substrate Z-L-Lys-SBzl 100 μM, 5 min preincubation; read-out: IC50 (Stars), C1s Inhibiting Activity. In outline: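 IC50 from nonlinear regression of reaction rates versus compound concentration, with rates taken from A405 recorded at 30 s intervals over 30 min after adding 100 μM Z-L-Lys-SBzl plus 100 μM DTNB. Enzyme was human C1s purified from serum, 1.16 nM, given 5 min compound preincubation at room temperature, pH 7.5 Tris/1 M NaCl.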

With `O=C(NCC(=O)N1C[C@H](OC(F)F)C[C@H]1C(=O)NCc1cc2cnccc2[nH]1)c1ccc2c(c1)Oc1ccccc1S2` [Compound 36, (2S,4R)-N-((1H-pyrrolo[3,2-c]pyridin-2-yl)methyl)-4-(difluoromethoxy)-1-((phenoxathiine-3-carbonyl)glycyl)pyrrolidine-2-carboxamide], the IC50 is below 0.1 µM.

Regarding `C[C@@]12C[C@@H]1N(C(=O)CNC(=O)c1ccc(Oc3ccccc3)cc1)[C@H](C(=O)NCc1cccc(Cl)c1Cl)C2` [Compound 13, (1S,3S,5S)-N-(2,3-dichlorobenzyl)-5-methyl-2-((4-phenoxybenzoyl)glycyl)-2-azabicyclo[3.1.0]hexane-3-carboxamide], the IC50 was above 1 µM.

For `COC[C@@]1(F)C[C@@H](C(=O)NCc2cc3cnccc3[nH]2)N(C(=O)CNC(=O)c2ccc(Oc3ccccc3)cc2)C1` [Compound 30, (2S,4R)-N-((1H-pyrrolo[3,2-c]pyridin-2-yl)methyl)-4-fluoro-4-(methoxymethyl)-1-((4-phenoxybenzoyl)glycyl) pyrrolidine-2-carboxamide], the IC50 is below 0.1 µM.

`O=C(NCC(=O)N1C[C@H](OC(F)F)C[C@H]1C(=O)NCc1ccc2[nH]ncc2n1)c1ccc2c(c1)Oc1ccccc1S2` [Compound 227, (2S,4R)-N-((1H-pyrazolo[4,3-b]pyridin-5-yl)methyl)-4-(difluoromethoxy)-1-((phenoxathiine-3-carbonyl)glycyl)pyrrolidine-2-carboxamide]: the 50% inhibitory concentration (IC50) is above 1 µM.

For `C[C@@]12C[C@@H]1N(C(=O)CNC(=O)c1cccc(Oc3ccc(F)cc3)c1)[C@H](C(=O)NCc1cc3cnccc3s1)C2` [Compound 252, (1S,3S,5S)-2-((3-(4-fluorophenoxy)benzoyl)glycyl)-5-methyl-N-(thieno[3,2-c]pyridin-2-ylmethyl)-2-azabicyclo[3.1.0]hexane-3-carboxamide], the IC50 is below 0.1 µM.

Turning to `C[C@@]12C[C@@H]1N(C(=O)CNC(=O)CCCOc1ccccc1)[C@H](C(=O)OCc1cc3c(cn1)CNC3)C2` [Compound 66, (2,3-dihydro-1H-pyrrolo[3,4-c]pyridin-6-yl)methyl (1S,3S,5S)-5-methyl-2-((4-phenoxybutanoyl)glycyl)-2-azabicyclo[3.1.0]hexane-3-carboxylate], the half-maximal inhibitory concentration (IC50) is above 1 µM.

In the case of `Cc1ccc(Oc2cccc(C(=O)NCC(=O)N3C[C@H](OC(F)F)C[C@H]3C(=O)NCc3cc4cnccc4[nH]3)c2)c(F)c1` [Compound 260, (2S,4R)-N-((1H-pyrrolo[3,2-c]pyridin-2-yl)methyl)-4-(difluoromethoxy)-1-((3-(2-fluoro-4-methylphenoxy)benzoyl)glycyl) pyrrolidine-2-carboxamide], the IC50 is below 0.1 µM.

As for `Cc1ccc(Oc2ccc(F)c(C(=O)NCC(=O)N3C[C@H](OC(F)F)C[C@H]3C(=O)NCc3cc4cnccc4[nH]3)c2)c(F)c1` [Compound 322, (2S,4R)-N-((1H-pyrrolo[3,2-c]pyridin-2-yl)methyl)-4-(difluoromethoxy)-1-((2-fluoro-5-(2-fluoro-4-methylphenoxy)benzoyl)glycyl) pyrrolidine-2-carboxamide], the IC50 was below 0.1 µM.

In the case of `O=C(NCc1cc2cnccc2[nH]1)[C@@H]1CC2(CN1C(=O)CN1Cc3ccc(-c4ccc(F)cc4F)cc3C1=O)OCCO2` [Compound 125, (S)-N-((1H-pyrrolo[3,2-c]pyridin-2-yl)methyl)-7-(2-(6-(2,4-difluorophenyl)-1-oxoisoindolin-2-yl)acetyl)-1,4-dioxa-7-azaspiro[4.4]nonane-8-carboxamide], the half-maximal inhibitory concentration (IC50) is below 0.1 µM.

Consider `O=C(NCC(=O)N1C[C@H](OC(F)F)C[C@H]1C(=O)NCc1cc2cnccn2c1)c1ccc2c(c1)Oc1ccccc1S2` [Compound 266, (2S,4R)-4-(difluoromethoxy)-1-((phenoxathiine-3-carbonyl)glycyl)-N-(pyrrolo[1,2-a]pyrazin-7-ylmethyl)pyrrolidine-2-carboxamide], for which the concentration for half-maximal inhibition (IC50) is below 0.1 µM.

On to `C[C@@H](NC(=O)[C@@H]1C[C@@H](S(C)(=O)=O)CN1C(=O)CNC(=O)c1ccc2c(c1)-c1ccccc1C2(F)F)c1cc2cnccc2[nH]1` [Compound 72, (2S,4R)-N-((R)-1-(1H-pyrrolo[3,2-c]pyridin-2-yl)ethyl)-1-((9,9-difluoro-9H-fluorene-3-carbonyl)glycyl)-4-(methylsulfonyl)pyrrolidine-2-carboxamide], for which the IC50 is below 0.1 µM.

For the compound `O=C(NCC(=O)N1CC2(C[C@H]1C(=O)NCc1cc3cnccc3[nH]1)OCCO2)c1ccc(Oc2ccc(Cl)c(Cl)c2)o1` [Compound 287, (S)-N-((1H-pyrrolo[3,2-c]pyridin-2-yl)methyl)-7-((5-(3,4-dichlorophenoxy)furan-2-carbonyl)glycyl)-1,4-dioxa-7-azaspiro[4.4]nonane-8-carboxamide], the IC50 is below 0.1 µM.

Take `Cc1ccc(Oc2cccc(C(=O)NCC(=O)N3C[C@H](OC(F)F)C[C@H]3C(=O)NCc3cc4cnccc4[nH]3)c2F)cc1` [Compound 327, (2S,4R)-N-((1H-pyrrolo[3,2-c]pyridin-2-yl)methyl)-4-(difluoromethoxy)-1-((2-fluoro-3-(p-tolyloxy)benzoyl)glycyl) pyrrolidine-2-carboxamide]: the IC50 is below 0.1 µM.

With `C[C@@H](NC(=O)[C@@H]1C[C@@H](S(C)(=O)=O)CN1C(=O)CNC(=O)c1ccc(-c2ccccc2)cc1)c1cc2cnccc2[nH]1` [Compound 82, (2S,4R)-N-((R)-1-(1H-pyrrolo[3,2-c]pyridin-2-yl)ethyl)-1-(([1,1′-biphenyl]-4-carbonyl)glycyl)-4-(methylsulfonyl)pyrrolidine-2-carboxamide], the concentration for half-maximal inhibition (IC50) lay within 0.1 to 1 µM.

`C[C@@H](NC(=O)[C@@H]1C[C@]2(C)C[C@@H]2N1C(=O)CNC(=O)c1ccc(Oc2ccccc2)cc1)c1cc(B(O)O)cs1` [Compound 163, (5-((R)-1-((1S,3S,5S)-5-methyl-2-((4-phenoxybenzoyl)glycyl)-2-azabicyclo[3.1.0]hexane-3-carboxamido)ethyl)thiophen-3-yl)boronic acid]: the concentration for half-maximal inhibition (IC50) is above 1 µM.

Consider `O=C(NCC(=O)N1C[C@H](OC(F)F)C[C@H]1C(=O)NCc1ccc2c(c1)CNC2)c1ccc2c(c1)Oc1ccccc1S2` [Compound 228, (2S,4R)-4-(difluoromethoxy)-N-(isoindolin-5-ylmethyl)-1-((phenoxathiine-3-carbonyl)glycyl)pyrrolidine-2-carboxamide], for which the IC50 is below 0.1 µM.

On to `O=C(NCC(=O)N1C[C@H](OC(F)F)C[C@H]1C(=O)NCc1cc2cnccc2[nH]1)c1ccc2c(c1)-c1ccccc1C2(F)F` [Compound 8, (2S,4R)-N-((1H-pyrrolo[3,2-c]pyridin-2-yl)methyl)-1-((9,9-difluoro-9H-fluorene-3-carbonyl)glycyl)-4-(difluoromethoxy)pyrrolidine-2-carboxamide], for which the IC50 was below 0.1 µM.

For `O=C(NCC(=O)N1C[C@H](OC(F)F)C[C@H]1C(=O)NCc1cc2cnccc2[nH]1)c1ccc2c(c1)OCCS2` [Compound 356, (2S,4R)-N-((1H-pyrrolo[3,2-c]pyridin-2-yl)methyl)-4-(difluoromethoxy)-1-((2,3-dihydrobenzo[b][1,4]oxathiine-7-carbonyl)glycyl)pyrrolidine-2-carboxamide], the IC50 is below 0.1 µM.

As to `COc1ccc(C(=O)NCC(=O)N2C[C@H](OC(F)F)C[C@H]2C(=O)NCc2cc3cnccc3[nH]2)cc1` [Compound 384, (2S,4R)-N-((1H-pyrrolo[3,2-c]pyridin-2-yl)methyl)-4-(difluoromethoxy)-1-((4-methoxybenzoyl)glycyl) pyrrolidine-2-carboxamide], the IC50 is above 1 µM.

`CC1c2ccccc2-c2cc(C(=O)NCC(=O)N3C[C@H](OC(F)F)C[C@H]3C(=O)NCc3cc4cnccc4[nH]3)ccc21` (stereo partly drawn) [Compound 302, (2S,4R)-N-((1H-pyrrolo[3,2-c]pyridin-2-yl)methyl)-4-(difluoromethoxy)-1-((9-methyl-9H-fluorene-3-carbonyl)glycyl) pyrrolidine-2-carboxamide]: the IC50 was below 0.1 µM.

For `C[C@@H](NC(=O)[C@@H]1C[C@@H](C(F)(F)F)CN1C(=O)CNC(=O)c1ccc2c(c1)Oc1ccccc1S2)c1cc2cnccc2[nH]1` [Compound 176, (2S,4R)-N-((R)-1-(1H-pyrrolo[3,2-c]pyridin-2-yl)ethyl)-1-((phenoxathiine-3-carbonyl)glycyl)-4-(trifluoromethyl)pyrrolidine-2-carboxamide], the IC50 is below 0.1 µM.

`O=C(NCc1cc2cnccc2[nH]1)[C@@H]1C[C@@H](OC(F)F)CN1C(=O)CN1Cc2ncc(-c3ccc(F)cc3)cc2C1=O` [Compound 138, (2S,4R)-N-((1H-pyrrolo[3,2-c]pyridin-2-yl)methyl)-4-(difluoromethoxy)-1-(2-(3-(4-fluorophenyl)-5-oxo-5,7-dihydro-6H-pyrrolo[3,4-b]pyridin-6-yl)acetyl)pyrrolidine-2-carboxamide]: the IC50 is above 1 µM.
